Key:
Format in all cases: in vivo
Plasmopara viticola = assay: Test 3: control effect against grape downy mildew; conditions: Plasmopara viticola, 120 h, control value vs untreated section
In short: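 Neomuscat grape seedlings were sprayed with compound at 4 ppm, diluted from a 10% wettable powder in Tween20 solution. One day later they were inoculated with Plasmopara viticola zoospores at 1.0×10^4 units/ml and held moist at 22° C. for 16 hr. Control value was derived from leaf lesion area at 5 days versus untreated leaves.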

Phytophthora infestans = assay: whole plant or invertebrate; conditions: Phytophthora infestans, in Solanum lycopersicum, 96 h, read-out: control value (Test 1)
Pythium graminicola = assay: Test 4: control effect against rice damping-off by the Pythium fungus (soil lavage); conditions: 1,000 ppm, 2.5 ml test suspension drenched on contaminated soil, rice (koshihikari)
Method: A 10% wettable powder created according to the Pharmaceutical Formulation Example 1 was diluted with a Tween20 solution prepared to a concentration of 1/5000, then the compound of formula [1] was prepared to a concentration of 4 ppm. Further, the compound of formula [1] in Test 4 was adjusted to a concentration of 1,000 ppm.
<Test 4 Test of Control Effect Against Rice Damping-Off by the Pythium Fungus (Soil Lavage)>
Distilled water was added to the flora of Pythium graminicola cultured in bentoglass seed culture and stirred with a mixer, and adjusted the contaminated soil to 5 g of bacteria against 1 kg of soil.
In a cell tray having 31×31 mm^2 per cell, 20 ml of the contaminated soil was filled in each cell, and 3 seeds of rice chaff that has been forced to sprout (Species: koshihikari) were seeded, and 5 ml of soil was added for covering, then 2.5 ml of test suspension was drenched, and the seeds were incubated in a moist chamber adjusted to 28° C. for 72 hr to induce sprouting. Then, in a low temperature room of 5° C., the onset of disease was induced for 2 days, then the disease was nurtured for 14 days in a room of 25° C.
The soil was washed, and the apoptosis strain, growth restrained strain, and a healthy strain were measured and the onset rate was calculated by the following formula. Onset rate=[Σ(onset strain number by level×onset index)/(investigated strain×3)]×100 [Onset Index]
1: Growth restrained strain
Also, the following formula was used to compute the control value from the obtained onset index. control value={1−onset area rate at the section applied the test agent/onset area rate of untreated section}×100 Computational formula of the control value: […]

[1] = test system: Pseudoperonospora cubensis; assay: Test 2: control effect against cucumber downy mildew; conditions: Pseudoperonospora cubensis, 120 h, control value vs untreated section
In short: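 Cucumber (Sagami hanjiro) at 2-leaf stage sprayed with 4 ppm compound from 10% wettable powder in Tween20 (1/5000); inoculated next day with P. cubensis zoospores, 1.0×10^4 units/ml, 16 hr moist chamber at 22° C. Lesion area rate scored 5 days post-inoculation; control value = (1 − treated/untreated onset area rate)×100.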

Structure (SMILES) | pest or weed control at 4 µg/mL (Plasmopara viticola) | pest or weed control at 4 µg/mL (Phytophthora infestans) | pest or weed control at 1000 ppm (Pythium graminicola) | pest or weed control at 4 µg/mL [1]
O=C(Cn1nc(C(F)F)cc1C(F)F)N1CCC(c2nc(C3OCc4c(F)ccc(F)c4CO3)cs2)CC1 [Compound 1-51, 4-[4-(6,9-difluoro-1,5-dihydro-3H-2,4-benzodioxepin-3-yl)-2-thiazolyl]-1-[2-[3,5-bis(difluoromethyl)-1H-pyrazole-1-yl]acetyl]piperidine] | 100% | 100% | ≥ 90% | 100%
COc1ccc(Br)c2c1COC(c1csc(C3CCN(C(=O)Cn4nc(C(F)F)cc4C(F)F)CC3)n1)OC2 (centres unmarked) [Compound 1-57, 4-[4-(6-bromo-9-methoxy-1,5-dihydro-3H-2,4-benzodioxepin-3-yl)-2-thiazolyl]-1-[2-[3,5-bis(difluoromethyl)-1H-pyrazole-1-yl]acetyl]piperidine] | 100% | 100% | ≥ 90% | 100%
CS(=O)(=O)Oc1ccc(F)c2c1COC(c1csc(C3CCN(C(=O)Cn4nc(C(F)F)cc4C(F)F)CC3)n1)OC2 (centres unmarked) [Compound 1-62, 4-[4-(6-fluoro-9-methylsulfonyloxy-1,5-dihydro-3H-2,4-benzodioxepin-3-yl)-2-thiazolyl]-1-[2-[3,5-bis(difluoromethyl)-1H-pyrazole-1-yl]acetyl]piperidine] | 100% | 100% | ≥ 90% | 100%
Cc1cc(C(F)(F)F)nn1CC(=O)N1CCC(c2nc(C3OCc4cccc(CCl)c4CO3)cs2)CC1 (centres unmarked) [Compound 1-69, 4-[4-[6-(chloromethyl)-1,5-dihydro-3H-2,4-benzodioxepin-3-yl]-2-thiazolyl]-1-[2-[5-methyl-3-(trifluoromethyl)-1H-pyrazole-1-yl]acetyl]piperidine] | 100% | 100% | ≥ 90% | 60%
Cc1cc(C(F)(F)F)nn1CC(=O)N1CCC(c2nc(C3OCc4cccc(C=O)c4CO3)cs2)CC1 (centres unmarked) [Compound 1-70, 4-[4-(6-formyl-1,5-dihydro-3H-2,4-benzodioxepin-3-yl)-2-thiazolyl]-1-[2-[5-methyl-3-(trifluoromethyl)-1H-pyrazole-1-yl]acetyl]piperidine] | 100% | 100% | ≥ 90% | 60%
Cc1cc(C(F)(F)F)nn1CC(=O)N1CCC(c2nc(C3OCc4cccc(CC#N)c4CO3)cs2)CC1 (centres unmarked) [Compound 1-72, 4-[4-[6-(cyanomethyl)-1,5-dihydro-3H-2,4-benzodioxepin-3-yl]-2-thiazolyl]-1-[2-[5-methyl-3-(trifluoromethyl)-1H-pyrazole-1-yl]acetyl]piperidine] | 100% | 100% | ≥ 90% | 100%
CC(C)(C)c1ccc2c(c1)COC(c1csc(C3CCN(C(=O)Cn4nc(C(F)F)cc4C(F)F)CC3)n1)OC2 (centres unmarked) [Compound 1-78, 4-[4-(7-tert-butyl-1,5-dihydro-3H-2,4-benzodioxepin-3-yl)-2-thiazolyl]-1-[2-[3,5-bis(difluoromethyl)-1H-pyrazole-1-yl]acetyl]piperidine] | 100% | 100% | ≥ 90% | 100%
Cc1cc(C(F)(F)F)nn1CC(=O)N1CCC(c2nc(C3OCc4ccc(C(C)(C)C)cc4CO3)cs2)CC1 (centres unmarked) [Compound 1-79, 4-[4-(7-tert-butyl-1,5-dihydro-3H-2,4-benzodioxepin-3-yl)-2-thiazolyl]-1-[2-[5-methyl-3-(trifluoromethyl)-1H-pyrazole-1-yl]acetyl]piperidine] | 90% | 100% | ≥ 90% | 90%
O=C(Cn1nc(C(F)(F)F)cc1C(F)(F)F)N1CCC(c2nc(C3OCc4c(F)c(F)c(F)c(F)c4CO3)cs2)CC1 [Compound 1-84, 4-[4-(6,7,8,9-tetrafluoro-1,5-dihydro-3H-2,4-benzodioxepin-3-yl)-2-thiazolyl]-1-[2-[3,5-bis(trifluoromethyl)-1H-pyrazole-1-yl]acetyl]piperidine] | 100% | 100% | ≥ 90% | 100%
Cc1cc(C(F)(F)F)nn1CC(=O)N1CCC(c2nc(C3OCc4cccc(OS(=O)(=O)N(C)C)c4CO3)cs2)CC1 (centres unmarked) [Compound 1-90, 4-[4-[6-(dimethylaminosulfonyloxy)-1,5-dihydro-3H-2,4-benzodioxepin-3-yl]-2-thiazolyl]-1-[2-[5-methyl-3-(trifluoromethyl)-1H-pyrazole-1-yl]acetyl]piperidine] | 100% | 100% | ≥ 90% | 100%
O=C(Cn1nc(C(F)(F)F)cc1C(F)(F)F)N1CCC(c2nc(C3OCc4ccc(F)cc4CO3)cs2)CC1 (centres unmarked) [Compound 1-91, 4-[4-(7-fluoro-1,5-dihydro-3H-2,4-benzodioxepin-3-yl)-2-thiazolyl]-1-[2-[3,5-bis(trifluoromethyl)-1H-pyrazole-1-yl]acetyl]piperidine] | 100% | 100% | ≥ 90% | 100%
O=C(Cn1nc(C(F)(F)F)cc1C(F)(F)F)N1CCC(c2nc(C3OCc4ccc([N+](=O)[O-])cc4CO3)cs2)CC1 (centres unmarked) [Compound 1-95, 4-[4-(7-nitro-1,5-dihydro-3H-2,4-benzodioxepin-3-yl)-2-thiazolyl]-1-[2-[3,5-bis(trifluoromethyl)-1H-pyrazole-1-yl]acetyl]piperidine] | 100% | 100% | ≥ 90% | 100%
Cc1cc(C(F)(F)F)nn1CC(=O)N1CCC(c2nc(C3OCc4cccc(C=NO)c4CO3)cs2)CC1 (centres unmarked) [Compound 1-96, 4-[4-[6-(hydroxyimino)methyl-1,5-dihydro-3H-2,4-benzodioxepin-3-yl]-2-thiazolyl]-1-[2-[5-methyl-3-(trifluoromethyl)-1H-pyrazole-1-yl]acetyl]piperidine] | 100% | 100% | ≥ 90% | 100%
Cc1cc(C(F)(F)F)nn1CC(=O)N1CCC(c2nc(C3OCc4cccc(C(F)F)c4CO3)cs2)CC1 (centres unmarked) [Compound 1-97, 4-[4-[6-(difluoromethyl)-1,5-dihydro-3H-2,4-benzodioxepin-3-yl]-2-thiazolyl]-1-[2-[5-methyl-3-(trifluoromethyl)-1H-pyrazole-1-yl]acetyl]piperidine] | 100% | 100% | ≥ 90% | 100%
Cc1cc(C(F)(F)F)nn1CC(=O)N1CCC(c2nc(C3OCc4c(Br)ccc(Br)c4CO3)cs2)CC1 [Compound 1-100, 4-[4-(6,9-dibromo-1,5-dihydro-3H-2,4-benzodioxepin-3-yl)-2-thiazolyl]-1-[2-[5-methyl-3-(trifluoromethyl)-1H-pyrazole-1-yl]acetyl]piperidine] | 100% | 100% | ≥ 90% | 100%
O=C(Cn1nc(C(F)F)cc1C(F)F)N1CCC(c2nc(C3OCc4cccc(Br)c4CO3)cs2)CC1 (centres unmarked) [Compound 1-113, 4-[4-(6-bromo-1,5-dihydro-3H-2,4-benzodioxepin-3-yl)-2-thiazolyl]-1-[2-[3,5-bis(difluoromethyl)-1H-pyrazole-1-yl]acetyl]piperidine] | 100% | 100% | ≥ 90% | 100%
COc1ccc(F)c2c1COC(c1csc(C3CCN(C(=O)Cn4nc(C(F)(F)F)cc4C)CC3)n1)OC2 (centres unmarked) [Compound 1-133, 4-[4-(6-fluoro-9-methoxy-1,5-dihydro-3H-2,4-benzodioxepin-3-yl)-2-thiazolyl]-1-[2-[5-methyl-3-(trifluoromethyl)-1H-pyrazole-1-yl]acetyl]piperidine] | 100% | 100% | ≥ 90% | 100%

Source: patent publication US10104891B2 (priority 2014, dated 2018)
